Laboratory results from patent US8178506B2, “Oligomeric compounds and compositions for use in modulation of small non-coding RNAs” (Regulus Therapeutics Inc., priority 2003, dated 2012).
In the oligonucleotide strings, read from the 5' end, every base follows the letter of its sugar. An asterisk marks phosphorothioate; unmarked linkages are phosphodiester. Other units and linkages are bracketed, terminal groups are in braces. A string of capitals states the bases alone. e = 2'-O-(2-methoxyethyl) (MOE); [5mC] = 5-methylcytosine; d = 2'-deoxy (DNA)

System: IL-12 mRNA
Assay: IL-12 mRNA in LPS-activated primary murine macrophages
Type: cell-based, mouse
Conditions: for IL-12 mRNA expression, −IFN % UTC: 300 nM oligomeric compound and LPS, no IFN-gamma pretreatment, single experiment; for IL-12 mRNA expression, −IFN % UTC / IL-12 mRNA expression, +IFN % UTC: normalized to LPS-treated cells without oligomeric compound; for IL-12 mRNA expression, +IFN % UTC: 300 nM oligomeric compound, stimulation with IFN-gamma and LPS, average of 2 experiments; for IL-12 mRNA expression, % UTC: LPS, average of 3 treatments

## 327924 (antisense eG*e[5mC]*eA*eA*eG*e[5mC]*e[5mC]*e[5mC]*eA*eG*eA*e[5mC]*e[5mC]*eG*e[5mC]*eA*eA*eA*eA*eA*eG) [compound 327924]
  IL-12 mRNA expression, −IFN % UTC: 171 % UTC
  IL-12 mRNA expression, +IFN % UTC: 88 % UTC

## 327936 (antisense eA*e[5mC]*eA*eG*e[5mC]*eT*eG*eG*eT*eT*eG*eA*eA*eG*eG*eG*eG*eA*e[5mC]*e[5mC]*eA*eA) [compound 327936]
  IL-12 mRNA expression, −IFN % UTC: 221 % UTC
  IL-12 mRNA expression, +IFN % UTC: 55 % UTC

## 327963 (antisense eA*eA*e[5mC]*e[5mC]*eT*eA*eT*e[5mC]*e[5mC]*eT*eG*eA*eA*eT*eT*eA*e[5mC]*eT*eT*eG*eA*eA) [compound 327963]
  IL-12 mRNA expression, −IFN % UTC: 224 % UTC
  IL-12 mRNA expression, +IFN % UTC: 23 % UTC

## 327961 (antisense eG*eG*eG*eG*eT*eA*eT*eT*eT*eG*eA*e[5mC]*eA*eA*eA*e[5mC]*eT*eG*eA*e[5mC]*eA) [compound 327961]
  IL-12 mRNA expression, −IFN % UTC: 203 % UTC
  IL-12 mRNA expression, +IFN % UTC: 10 % UTC

## 327958 (antisense e[5mC]*e[5mC]*eG*eG*e[5mC]*eT*eG*e[5mC]*eA*eA*e[5mC]*eA*e[5mC]*eA*eA*eG*eA*e[5mC]*eA*e[5mC]*eG*eA) [compound 327958]
  IL-12 mRNA expression, −IFN % UTC: 188 % UTC
  IL-12 mRNA expression, +IFN % UTC: 60 % UTC

## 327940 (antisense eG*eA*eA*e[5mC]*eA*eG*eG*eT*eA*eG*eT*e[5mC]*eT*eG*eA*eA*e[5mC]*eA*e[5mC]*eT*eG*eG*eG) [compound 327940]
  IL-12 mRNA expression, −IFN % UTC: 228 % UTC
  IL-12 mRNA expression, +IFN % UTC: 107 % UTC

## 327945 (antisense e[5mC]*eT*eG*eT*eT*e[5mC]*e[5mC]*eT*eG*e[5mC]*eT*eG*eA*eA*e[5mC]*eT*eG*eA*eG*e[5mC]*e[5mC]*eA) [compound 327945]
  IL-12 mRNA expression, −IFN % UTC: 202 % UTC
  IL-12 mRNA expression, +IFN % UTC: 68 % UTC

## 327959 (antisense e[5mC]*eA*eG*e[5mC]*e[5mC]*eG*e[5mC]*eT*eG*eT*e[5mC]*eA*e[5mC]*eA*e[5mC]*eG*e[5mC]*eA*e[5mC]*eA*eG) [compound 327959]
  IL-12 mRNA expression, −IFN % UTC: 183 % UTC
  IL-12 mRNA expression, +IFN % UTC: 20 % UTC

## 327935 (antisense e[5mC]*eT*eA*e[5mC]*e[5mC]*eT*eG*e[5mC]*eA*e[5mC]*eT*eA*eT*eA*eA*eG*e[5mC]*eA*e[5mC]*eT*eT*eT*eA) [compound 327935]
  IL-12 mRNA expression, −IFN % UTC: 254 % UTC
  IL-12 mRNA expression, +IFN % UTC: 24 % UTC

## 129690 (antisense TTAGAATACGTCGCGTTATG; sugars from the 5' end e5 d10 e5, all phosphorothioate, methylation of C not given here) [compound 129690]
75 nM, +IFN
  IL-12 mRNA expression, % UTC: 66 % UTC
75 nM, −IFN
  IL-12 mRNA expression, % UTC: 114 % UTC
150 nM, +IFN
  IL-12 mRNA expression, % UTC: 54 % UTC
150 nM, −IFN
  IL-12 mRNA expression, % UTC: 109 % UTC
  IL-12 mRNA expression, −IFN % UTC: 73 % UTC
  IL-12 mRNA expression, +IFN % UTC: 129 % UTC
300 nM, +IFN
  IL-12 mRNA expression, % UTC: 66 % UTC
300 nM, −IFN
  IL-12 mRNA expression, % UTC: 101 % UTC
600 nM, +IFN
  IL-12 mRNA expression, % UTC: 81 % UTC
600 nM, −IFN
  IL-12 mRNA expression, % UTC: 128 % UTC

## 327971 (antisense eG*eG*eA*eA*eA*eT*e[5mC]*e[5mC]*e[5mC]*eT*eG*eG*e[5mC]*eA*eA*eT*eG*eT*eG*eA*eT) [compound 327971]
  IL-12 mRNA expression, −IFN % UTC: 146 % UTC
  IL-12 mRNA expression, +IFN % UTC: 17 % UTC
